Patent publication US8741871B2, “Trehalose compound, method for producing same, and pharmaceutical product containing the compound” (priority 2008, dated 2014)

Tests used:
rabbit neutrophils [1] = assay: Measurement of amount of active oxygen released from rabbit neutrophils; assay type: cell-based; details: 50 μM, 2 hours; FIG. 3
Protocol: 5 ml of the ACD solution was placed in a 20-ml syringe (injection needle [Nipro]), so that the inside of the syringe was entirely rinsed therewith. 20 ml of blood was collected from the central auricular artery of a rabbit using the syringe, and the collected blood was gently shaken upside down. Thereafter, the blood was dispensed into three centrifuge tubes (15 ml type; Falcon), and each tube was then subjected to centrifugation at 4° C. at 1,500 rpm for 5 minutes. Thereafter, the supernatant was recovered into a centrifuge tube (50 ml type; Falcon). A 1.2% dextran-PBS solution was added to the recovered supernatant in an amount equal the supernatant, and the obtained mixture was then gently shaken upside down. Thereafter, the mixture was left at a room temperature for 30 minutes or more. The emergence of an interface was confirmed, and the supernatant was placed in a new centrifuge tube (50 ml type; Falcon). […]
The influence of the test compound on the release of active oxygen from rabbit neutrophils was measured by the following procedures.
Neutrophils (1.0×10^5 cells/100 μl) were plated on a 96-well plate (Falcon). […] The obtained mixture was incubated at 37° C. for 2 hours, and the amount of active oxygen released was measured using a fluorescence measurement apparatus (Ex: 485 nm, Em: 535 nm).

[2] = test system: Pseudomonas aeruginosa (Fhu-071115 strain); assay type: in vivo
Protocol: As a test compound, 1 mg of the compound synthesized by the method described in Production Example α-1 was weighed. An emulsion solution of the test compound was prepared in the same manner as described above.
Pseudomonas aeruginosa (Fhu-071115 strain) derived from patients was used, and it was prepared as follows.
L-broth was withdrawn with a 40-ml measuring pipette and was then added to a 200-ml flask, and the flask was then sealed with a sponge plug. At the same time, 5 ml of L-broth was added to each of two other screw-top test tubes. The thus prepared flask and screw-top test tubes were subjected to an autoclave at 121° C. for 20 minutes. After the L-broth medium had been cooled to a room temperature, Pseudomonas aeruginosa, which had been stored in an ultra low temperature freezer, was added into 40 ml of the L-broth the medium in a clean bench. The obtained mixture was shaken in an incubator overnight. Thereafter, the resultant was centrifuged at 9000 rpm for 15 minutes, and the supernatant was then removed. […] This process was carried out three times. Thereafter, 4.5 ml of sterilized normal saline solution was added to the resultant, and the mixture was then blended with the use of a Vortex mixer. The obtained solution was used as a strain stock solution. Using a 1000-fold diluted strain solution, the number of cells was counted with OneCell Counter. Thereafter, the strain stock solution was diluted to a desired concentration, and the thus diluted solution was then used in the subsequent test.
Mice were divided into two groups, and the following two types of experiments were carried out. • (A) The aforementioned emulsion solution containing the test compound (100 μg/mouse) was intraperitoneally administered to a group of three mice (ICR, 5-week-old). Three hours later, Pseudomonas aeruginosa (5.0×10^7 cells/mouse) was intraperitoneally administered to the mice. Thereafter, the condition of the mice was observed. (B) Pseudomonas aeruginosa (2.0×10^7 cells/mouse) was intraperitoneally administered to a group of three mice (ICR, 5-week-old). Three hours later, the aforementioned emulsion solution containing the test compound (100 μg/mouse) was intraperitoneally administered to the mice. Thereafter, the condition of the mice was observed.

[3] = test system: Welch bacillus toxin (recombinant α-toxin); details: in vivo, ip
rabbit neutrophils [4] = assay type: cell-based
[5] = test system: Welch bacillus (C. perfringens Type-A NCTC8237); assay type: in vivo; details: pre-administration 100 μg/mouse i.p., twenty-four hours later 5.0×10^7 CFU/mL Welch bacillus i.p.; FIG. 16
[6] = test system: breast cancer cells (FM3A cells); assay type: in vivo; details: 100 μg/mouse i.p. twenty-four hours before FM3A inoculation, nineteen days later
Protocol: The 100 μg/mouse test compound obtained in Example 9 (emulsion solution) was intraperitoneally administered to each mouse, and twenty-four hours later, breast cancer cells (FM3A cells) were inoculated into the abdominal cavity thereof. Nineteen days later, the body weight of each mouse was measured. In addition, the tissue sections of diaphragm, pancreas and testis were subjected to HE staining, and they were then observed under a microscope. As a result, the body weight of the breast cancer cell-inoculated mouse was increased by approximately 10 g, when compared with a control mouse, and it was observed that the mouse contained a large amount of ascites fluid.

Compound | action to activate the release of active oxygen from rabbit neutrophils, compared with TDCM (rabbit neutrophils [1]) | Number of surviving mice/number of treated mice, 2 hours later (Group A) ([2]; Group A: pre-administration 100 μg/mouse i.p., three hours later Pseudomonas aeruginosa 5.0×10^7 cells/mouse i.p., 2 hours later) | Number of surviving mice/number of treated mice, 4 hours later (Group A) ([2]; Group A: pre-administration 100 μg/mouse i.p., three hours later Pseudomonas aeruginosa 5.0×10^7 cells/mouse i.p., 4 hours later) | Number of surviving mice/number of treated mice, 15 hours later (Group A) ([2]; Group A: pre-administration 100 μg/mouse i.p., three hours later Pseudomonas aeruginosa 5.0×10^7 cells/mouse i.p., 15 hours later) | Number of surviving mice/number of treated mice, 24 hours later (Group A) ([2]; Group A: pre-administration 100 μg/mouse i.p., three hours later Pseudomonas aeruginosa 5.0×10^7 cells/mouse i.p., 24 hours later) | Number of surviving mice/number of treated mice, 48 hours later (Group A) ([2]; Group A: pre-administration 100 μg/mouse i.p., three hours later Pseudomonas aeruginosa 5.0×10^7 cells/mouse i.p., 48 hours later) | Number of surviving mice/number of treated mice, 2 hours later (Group B) ([2]; Group B: Pseudomonas aeruginosa 2.0×10^7 cells/mouse i.p., three hours later test compound 100 μg/mouse i.p., 2 hours later) | Number of surviving mice/number of treated mice, 4 hours later (Group B) ([2]; Group B: Pseudomonas aeruginosa 2.0×10^7 cells/mouse i.p., three hours later test compound 100 μg/mouse i.p., 4 hours later) | Number of surviving mice/number of treated mice, 15 hours later (Group B) ([2]; Group B: Pseudomonas aeruginosa 2.0×10^7 cells/mouse i.p., three hours later test compound 100 μg/mouse i.p., 15 hours later) | Number of surviving mice/number of treated mice, 24 hours later (Group B) ([2]; Group B: Pseudomonas aeruginosa 2.0×10^7 cells/mouse i.p., three hours later test compound 100 μg/mouse i.p., 24 hours later) | Number of surviving mice/number of treated mice, 48 hours later (Group B) ([2]; Group B: Pseudomonas aeruginosa 2.0×10^7 cells/mouse i.p., three hours later test compound 100 μg/mouse i.p., 48 hours later) | Number of surviving mice/number of treated mice, 2 hours later [3] | Number of surviving mice/number of treated mice, 6 hours later [3] | Number of surviving mice/number of treated mice, 12 hours later [3] | Number of surviving mice/number of treated mice, 24 hours later [3] | Number of surviving mice/number of treated mice, 48 hours later [3] | phagocytic ability of rabbit neutrophils, activity compared with TDCM (rabbit neutrophils [4]) | lethality of Welch bacillus-infected mice [5] | body weight of breast cancer cell-inoculated mouse [6] | infiltration and metastasis of the cancer cells into various organs (diaphragm, pancreas, testis) ([6]; HE staining, FIG. 20)
CCCCCCCCCCC(CCCCCCCCCC)C(=O)OCC1O[C@H](O[C@H]2OC(COC(=O)C(CCCCCCCCCC)CCCCCCCCCC)[C@@H](O)C(O)C2O)C(O)C(O)[C@@H]1O (stereo partly drawn) [Example 1, 6,6′-bis-O-(2-decyldodecanoyl)-α,α′-trehalose] | approximately two times higher than the activity of TDCM | 3/3 | 3/3 | 2/3 | 2/3 | 2/3 | 3/3 | 3/3 | 3/3 | 1/3 | 1/3 | 4/4 | 4/4 | 4/4 | 3/4 | 3/4 | approximately 2 times |  |  | 
CCCCCCCCCC(CCCCCCCCC)CC(=O)OCC1O[C@H](O[C@H]2OC(COC(=O)CC(CCCCCCCCC)CCCCCCCCC)[C@@H](O)C(O)C2O)C(O)C(O)[C@@H]1O (stereo partly drawn) [Example 9, 6,6′-bis-O-(3-nonyldodecanoyl)-α,α′-trehalose] |  |  |  |  |  |  |  |  |  |  |  |  |  |  |  |  |  | significantly suppressed | equivalent to that of a control mouse | not observed at all
